Laboratory results reported in patent US8507562B2, “Synthesis of (1)-beta-elemene, (-)-beta-elemenal, (-)-beta-elemenol, (-)-beta-elemene fluoride and their analogues, intermediates, and composition and uses thereof” (HYWE Pharmaceuticals, Inc., priority 2004, dated 2013).
Read-outs that look alike come from different tables or passages of the source.

Assays:
human glioma cells = test: MTT assay, elemene analogs; type: cell-based
[1] = system: human glioma SHG44 (xenograph in brain); test: Tumor xenographed in mice brain, survival; type: in vivo, nude mice; conditions: for Survival time as % of control (T/C): compared to control
Procedure: (§1) Mice model with tumor xenographed in mice brain: Glioma cell line G-422 or SHG44 (log phase) were diluted to 2×10^7/ml in cell culture hood (no bacteria environment). Each mouse was injected with 0.05 ml of tumor cell in its brain. […] The survival time of these mice was recorded in the next 30 days. The life extension was calculated using the following formula: Life Extension Rate=[( […])/Average survival days of control group[×100 Results: […]

[2] = system: Colon Cancer Cells HCT-15
[3] = Chronic toxicity study, 28 days i.p.; type: in vivo; conditions: rats
Procedure: In the Rat study, three groups of rats (n=20 per group, half male and half female) were given (i.p.) 7.5, 15, or 30 mg/kg/d of β-Elemene for 28 days consecutively. […] Ascites were not completely absorbed during 4 weeks without drug intake. […] The accumulated toxicity of β-Elemene (via i.p.) was not severe, except irritation at local injection site. The safe dose was 7.5 mg/kg/d.

[4] = system: human breast cancer Bcap-37
[5] = system: human prostate cancer PC-3M
[6] = 3H labeled Elemene, intravenous or oral, radioactivity detected in brain; cited from earlier work
STTG1 brain tumor = test: MTT survival assay; type: cell-based, human
H-460 lung cancer = test: MTT survival assay; type: cell-based, human; conditions: 2 × 10^4 cells/ml
[7] = system: Colon Cancer Cells HCT-15; test: MTS cell viability assay; conditions: combinations with Elemene 160 μg/ml, n = 8
[8] = system: Colon Cancer Cells Colo 205; test: MTS cell viability assay; conditions: Colo 205, drug alone
[9] = system: human glioma G422 (xenograph in brain); test: Tumor xenographed in mice brain, survival; type: in vivo
Procedure: as §1

[10] = system: Colon Cancer Cells HCT-116; test: MTS cell viability assay; type: cell-based, human; conditions: combinations with Elemene 160 μg/ml, n = 8
[11] = Blood brain barrier passage of 3H labeled Elemene; type: in vivo, experimental animals; conditions: own animal experiment, tritium labeled, parent, derivatives and/or metabolites not distinguished
Excerpt: But no careful experiments were done to figure out if it is beta-elemene itself, or its derivatives, or its metabolite or a combination of the above, which pass the BBB. Thus how Elemene works to treat brain tumor is unknown.

BEL-7402 cells = BEL-7402 cells after 6 weeks of induction with Elemene at 48.9 ug/ml; cited from earlier work
[12] = system: human breast cancer ao10/17
[13] = 12.5 mg/kg/time iv × 10 bid, listed as β-Elemene
[14] = 25 mg/kg/time iv × 10 bid, listed as β-Elemene
[15] = 50 mg/kg/time iv × 10 bid, listed as β-Elemene

## (−)-Beta-elemene
Human glioma cells; 24 hr
  IC50 in human glioma cells: 95.52 µg/mL
Human glioma cells; 48 hr
  IC50 in human glioma cells: 88.48 µg/mL
Human glioma cells; 72 hr
  IC50 in human glioma cells: 93.34 µg/mL
[1]; 7.5 mg/kg/time iv × 10 qd
  Average Life Span (day) X± SD: 20.2 ± 1.7 days
  Survival time as % of control (T/C): 132.84%
[1]; 7.5 mg/kg/time iv × 10 qd, listed as β-Elemene
  Survival time as % of control (T/C): 128.72%
[1]; 15 mg/kg/time iv × 10 qd
  Average Life Span (day) X± SD: 21.8 ± 1.9 days
  Survival time as % of control (T/C): 140.46%
[1]; 15 mg/kg/time iv × 10 qd, listed as β-Elemene
  Survival time as % of control (T/C): 139.31%
[1]; 30 mg/kg/time iv × 10 qd
  Average Life Span (day) X± SD: 23.3 ± 3.6 days
  Survival time as % of control (T/C): 150.37%
[1]; 30 mg/kg/time iv × 10 qd, listed as β-Elemene
  Survival time as % of control (T/C): 148.69%
[1]; 60 mg/kg/time iv × 10 qd
  Average Life Span (day) X± SD: 25.2 ± 3.1 days
  Survival time as % of control (T/C): 159.81%
[1]; 60 mg/kg/time iv × 10 qd, listed as β-Elemene
  Survival time as % of control (T/C): 160.36%
Human colon cancer HCT-8; 12.5 mg/kg/time iv × 10 bid
  Inhibition Rate %: 38.32%
  Tumor Weight (g) X ± SD: 0.928 ± 0.07 g
Human colon cancer HCT-8; [13]
  Inhibition Rate %: 35.10%
Human colon cancer HCT-8; 25 mg/kg/time iv × 10 bid
  Inhibition Rate %: 49.49%
  Tumor Weight (g) X ± SD: 0.772 ± 0.05 g
Human colon cancer HCT-8; [14]
  Inhibition Rate %: 46.01%
Human colon cancer HCT-8; 50 mg/kg/time iv × 10 bid
  Inhibition Rate %: 57.15%
  Tumor Weight (g) X ± SD: 0.655 ± 0.08 g
Human colon cancer HCT-8; [15]
  Inhibition Rate %: 54.20%
[2]
  IC50: 194 ± 19.3 µg/mL
[3]; 7.5 mg/kg/d i.p., 28 days
  changes, low dose group: No significant changes
[3]; 30 mg/kg/d i.p., 28 days, n=20
  mortality, high dose group: Six rats in high dose group died
[3]; 15 and 30 mg/kg/d i.p., 28 days
  ascites, medium and high dose groups: Ascites were developed in all animals
[3]; i.p., 28 days consecutively
  safe dose: 7.5 mg/kg/day
[4]; 12.5 mg/kg/time iv × 10 bid
  Inhibition Rate %: 36.09%
  Tumor Weight (g) X ± SD: 0.870 ± 0.04 g
[4]; [13]
  Inhibition Rate %: 33.08%
[4]; 25 mg/kg/time iv × 10 bid
  Inhibition Rate %: 45.31%
  Tumor Weight (g) X ± SD: 0.738 ± 0.07 g
[4]; [14]
  Inhibition Rate %: 43.23%
[4]; 50 mg/kg/time iv × 10 bid
  Inhibition Rate %: 51.33%
  Tumor Weight (g) X ± SD: 0.675 ± 0.10 g
[4]; [15]
  Inhibition Rate %: 48.08%
[5]; 12.5 mg/kg/time iv × 10 bid
  Inhibition Rate %: 27.95%
  Tumor Weight (g) X ± SD: 1.16 ± 0.12 g
[5]; 25 mg/kg/time iv × 10 bid
  Inhibition Rate %: 34.78%
  Tumor Weight (g) X ± SD: 1.05 ± 0.07 g
[5]; 50 mg/kg/time iv × 10 bid
  Inhibition Rate %: 46.58%
  Tumor Weight (g) X ± SD: 0.86 ± 0.12 g
[6]
  blood brain barrier (BBB) passage: passes the blood brain barrier
STTG1 brain tumor; STTG1, 24 h
  IC50: 112 µg/mL
STTG1 brain tumor; STTG1, 48 h
  IC50: 115 µg/mL
STTG1 brain tumor; STTG1, 72 h
  IC50: 112 µg/mL
H-460 lung cancer; H460, 24 h
  IC50: 89.5 µg/mL
H-460 lung cancer; H460, 48 h
  IC50: 70.6 µg/mL
H-460 lung cancer; H460, 72 h
  IC50: 68.2 µg/mL
[7]; HCT-15, 4 hr/24 hr × 2
  IC50: 199 ± 11.5 µg/mL
[7]; HCT-15, 4 hr/24 hr × 3
  IC50: 165 ± 23.0 µg/mL
[7]; HCT-15, 4 hr/24 hr
  IC50: 214 ± 15.8 µg/mL
[7]; HCT-15, 4 hr
  IC50: 229 ± 26.9 µg/mL
[7]; HCT-15, 8 hr
  IC50: 215 ± 34.1 µg/mL
[7]; HCT-15, 12 hr
  IC50: 202 ± 21.8 µg/mL
[7]; HCT-15, 48 hr
  IC50: 197 ± 12.7 µg/mL
[7]; HCT-15, 72 hr
  IC50: 197 ± 22.3 µg/mL
[8]; Time 4 hr, n = 8
  IC50: 144 ± 10.4 µg/mL
[8]; Time 4 hr/24 hr × 2, n = 8
  IC50: 82.3 ± 7.11 µg/mL
[8]; Time 4 hr/24 hr × 3, n = 8
  IC50: 56.7 ± 12.6 µg/mL
[8]; Time 4 hr/24 hr, n = 8
  IC50: 96.3 ± 11.1 µg/mL
[8]; Time 8 hr, n = 8
  IC50: 116 ± 4.00 µg/mL
[8]; Time 12 hr, n = 8
  IC50: 110 ± 9.51 µg/mL
[8]; Time 24 hr, n = 8
  IC50: 83.0 ± 13.7 µg/mL
[8]; Time 48 hr, n = 8
  IC50: 75.3 ± 5.04 µg/mL
[8]; Time 72 hr, n = 8
  IC50: 77.7 ± 14.2 µg/mL
[9]; 7.5 mg/kg/time iv × 10 qd
  Average Life Span (day) X± SD: 12.3 ± 3.4 days
[9]; 15 mg/kg/time iv × 10 qd
  Average Life Span (day) X± SD: 13.1 ± 2.7 days
[9]; 30 mg/kg/time iv × 10 qd
  Average Life Span (day) X± SD: 14.1 ± 2.3 days
[9]; 60 mg/kg/time iv × 10 qd
  Average Life Span (day) X± SD: 14.9 ± 2.1 days
[10]; HCT-116, 4 hr/24 hr × 2
  IC50: 203 ± 23.1 µg/mL
[10]; HCT-116, 4 hr/24 hr × 3
  IC50: 165 ± 22.0 µg/mL
[10]; HCT-116, 4 hr/24 hr
  IC50: 230 ± 25.2 µg/mL
[10]; HCT-116, 4 hr
  IC50: 363 ± 45.9 µg/mL
[10]; HCT-116, 8 hr
  IC50: 206 ± 24.2 µg/mL
[10]; HCT-116, 12 hr
  IC50: 201 ± 12.0 µg/mL
[10]; HCT-116, 24 hr
  IC50: 184 ± 26.1 µg/mL
[10]; HCT-116, 48 hr
  IC50: 163 ± 21.8 µg/mL
[10]; HCT-116, 72 hr
  IC50: 157 ± 22.0 µg/mL
[11]
  blood brain barrier (BBB) passage: pass the blood-brain-barrier
[11]; listed as beta-elemene
  blood brain barrier (BBB) passage: can pass blood brain barrier
BEL-7402 cells
  expression of MDR1 mRNA or P-glycoprotein (P-gp): did not express MDR1 mRNA or P-glycoprotein (P-gp)
[12]; 12.5 mg/kg/time iv × 10 bid
  Inhibition Rate %: 28.28%
  Tumor Weight (g) X ± SD: 0.827 ± 0.06 g
[12]; [13]
  Inhibition Rate %: 31.08%
[12]; 25 mg/kg/time iv × 10 bid
  Inhibition Rate %: 35.03%
  Tumor Weight (g) X ± SD: 0.765 ± 0.1 g
[12]; [14]
  Inhibition Rate %: 36.25%
[12]; 50 mg/kg/time iv × 10 bid
  Inhibition Rate %: 44.14%
  Tumor Weight (g) X ± SD: 0.643 ± 0.1 g
[12]; [15]
  Inhibition Rate %: 46.42%
